{"source": "patent US20080262080A1", "about": "“Allergy Suppressive Agent” (KYUSHU UNIVERSITY, NATIONAL UNIVERSITY CORPORATION, priority 2004, published 2008)", "test_system": "FcεRI α- and γ-chains", "assay": "Expression levels of the proteins constituting FcεRI (α- and γ-chains) in KU812 cells, immunoprecipitation and blotting", "assay_type": "cell-based, human", "conditions": "serum-free, 6 hours, β-actin control", "method": "The expression of each of the FcεRI α- and γ-chains was detected by collecting cells having been incubated by adding chrysin, lysing the cells, conducting immunoprecipitation, subjecting the immunoprecipitate to DS-PAGE and then blotting. β-Actin was employed as a control.\nKU812 cells (1×10^6 cells/mL) were incubated under serum-free conditions in RPMI 1640 medium, to which chrysin had been added, for 6 hours. After incubating, the cells were washed with PBS once and then lysed by shaking together with Lysis buffer (composition: 50 mM Tris-HCl pH 7.5, 1% Triton X-100, 150 mM NACl, 1 mM EDTA, 50 mM NaF, 30 mM Na4P2O7, 1 mM PMSF, 2 μg/mL aprotinin, 1 mM pervandate) at 4° C. for 30 min. Subsequently, the mixture was centrifuged at 12,000×g for 10 min at 4° C. to precipitate insoluble matters. The supernatant was collected and proteins were quantified. The samples were diluted with Lysis buffer so that all of them had the same protein concentration, thereby giving lysate samples.\nProtein A Sepharose beads (Amersham Pharmacia Biotech) were shaken in Lysis buffer (composition: 50 mM Tris-HCl pH 7.5, 150 mM NACl, 1% Triton X-100, 1 mM EDTA, 50 mM NaF, 30 mM Na4P2O7, 1 mM PMSF, 2 μg/mL aprotinin), to which CRA-1 antibody had been added to give a final concentration of 1 μg/mL, for 2 to 4 hours at 4° C. so as to allow the beads to adsorb CRA-1 antibody. […]"}
{"compound": "O=c1cc(-c2ccccc2)oc2cc(O)cc(O)c12", "note": "[Chrysin, 5,7-dihydroxyflavone]", "values": [{"measurement": "expression of the proteins constituting FcεRI (α- and γ-chains)", "value": "suppressive effect"}]}
